Measurements published in ChEMBL document CHEMBL3627687, “Sesquiterpenes from Carpesium macrocephalum inhibit Candida albicans biofilm formation and dimorphism” (Bioorg Med Chem Lett, 2015).
Values after ≈ are worked out from the molar mass of the structure shown.

Key:
[1] = test system: Candida albicans; assay: Antifungal activity against Candida albicans SC5314 assessed as inhibition of yeast cell to hyphae transition after 4 hrs by microscopic analysis; format: functional, organism-based; conditions: SC5314, 4 h
[2] = test system: Candida albicans; assay: Antifungal activity against Candida albicans SC5314 assessed as inhibition of biofilm formation by XTT assay; format: functional, organism-based
[3] = test system: Candida albicans; assay: Antifungal activity against Candida albicans SC5314 by CLSI standard M27-A3 method; format: functional

| SMILES | IC50 [1] [µg/mL] | IC50 [2] [µg/mL] | MIC50 [3] [µg/mL] |
| --- | --- | --- | --- |
| C=C1C(=O)O[C@H]2C[C@H](C)[C@@H]3CC[C@@]4(C)O[C@@]34C[C@H]12 | 106 (≈ 429 µM) | 38 (≈ 153 µM) | – |
| C=C1C(=O)O[C@@H]2C[C@H](C)C(CCC(C)O)=CC[C@H]12 (stereo not given in full) | > 128 | > 128 | – |
| C=C1C(=O)O[C@@H]2C[C@@]3(C)CCC[C@H](C)[C@@]34O[C@H]4[C@H]12 | 118 (≈ 477 µM) | > 128 | – |
| C=C1C(=O)O[C@@H]2C[C@]3(C)[C@@H](CCC(C)=O)[C@@H]3C[C@H]12 | 100 (≈ 403 µM) | > 128 | – |
| C=C1C(=O)O[C@@H]2C[C@H](C)C(CCC(C)OC(=O)C(C)CC)=CC[C@H]12 (stereo not given in full) | 105 (≈ 314 µM) | > 128 | – |
| C=C(C(=O)O)[C@@H]1CC[C@@]2(C)CCC=C(C)C2C1 (stereo not given in full) | > 128 | > 128 | – |
| OC(Cn1cncn1)(Cn1cncn1)c1ccc(F)cc1F [FLUCONAZOLE] | – | 2 (≈ 6.53 µM) | – |
| C=C1C(=O)O[C@@H]2C[C@@]3(C)C[C@@H](O)CC(=C)[C@@H]3C[C@H]12 [IVALIN] | > 128 | 15.4 (≈ 62 µM) | – |
| C=C1C(=O)O[C@@H]2C[C@@]3(C)CCCC(=C)[C@]3(O)C[C@H]12 [TELEKIN] | > 128 | 36 (≈ 145 µM) | – |
| C=C1C(=O)O[C@@H]2C[C@H](C)C(CCC(C)=O)=CC[C@H]12 [TOMENTOSIN] | 31.6 (≈ 127 µM) | > 128 | 128 (≈ 515 µM) |
